These results are taken from patent US10316032B2, “Solid forms of a compound for modulating kinases” (Plexxikon Inc., priority 2015, dated 2019).

Series [1] can be described thus: Interconversion (competitive slurry) experiments Form B / Form H. In kind it is physicochemical. The conditions noted are these: various solvent systems, between ambient temperature and approximately 75° C. Here is the method:
Solutions of Compound I were prepared by adding sufficient solids to a given solvent or solvent system at ambient conditions such that undissolved solids were present. The mixture was then agitated in a closed vial at ambient or elevated temperature for an extended period of time. Solids were collected by vacuum filtration and analyzed.

Another series deals with B-Raf V600E kinase (Homo sapiens, UniProt P15056, V600E). Nature of the series: B-Raf V600E kinase inhibition.
Sequence of B-Raf V600E kinase (P15056 whole entry V600E): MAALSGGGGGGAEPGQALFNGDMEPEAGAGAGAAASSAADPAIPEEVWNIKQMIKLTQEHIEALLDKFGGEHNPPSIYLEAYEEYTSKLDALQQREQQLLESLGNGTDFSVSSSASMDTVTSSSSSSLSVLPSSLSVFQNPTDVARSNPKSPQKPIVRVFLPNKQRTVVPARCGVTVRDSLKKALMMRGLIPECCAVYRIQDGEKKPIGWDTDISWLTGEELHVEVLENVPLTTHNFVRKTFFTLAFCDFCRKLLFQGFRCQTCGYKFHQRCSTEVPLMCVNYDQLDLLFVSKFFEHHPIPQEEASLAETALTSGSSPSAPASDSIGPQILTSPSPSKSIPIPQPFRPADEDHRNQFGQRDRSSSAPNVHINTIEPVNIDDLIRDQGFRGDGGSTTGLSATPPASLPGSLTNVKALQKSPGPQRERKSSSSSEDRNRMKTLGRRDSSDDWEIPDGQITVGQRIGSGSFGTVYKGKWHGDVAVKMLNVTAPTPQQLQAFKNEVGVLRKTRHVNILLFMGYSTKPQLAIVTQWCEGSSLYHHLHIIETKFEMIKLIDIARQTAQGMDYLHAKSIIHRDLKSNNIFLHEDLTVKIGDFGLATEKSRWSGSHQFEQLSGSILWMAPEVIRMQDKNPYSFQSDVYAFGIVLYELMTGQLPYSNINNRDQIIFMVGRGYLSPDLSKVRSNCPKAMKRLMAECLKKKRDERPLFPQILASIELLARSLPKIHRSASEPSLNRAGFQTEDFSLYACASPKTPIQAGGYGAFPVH
Series [2] in a line: Solubility estimates at ambient temperature (solvent aliquot addition, visual). The class given is physicochemical. Particulars: thermodynamic from solid. The procedure: Aliquots of various solvents were added to measured amounts of Compound I with agitation (typically sonication) at ambient temperature until complete dissolution was achieved, as judged by visual observation. Solubilities were calculated based on the total solvent used to give a solution; actual solubilities may be greater because of the volume of solvent portions utilized or a slow rate of dissolution. […] If dissolution occurred at the first aliquot the value was reported as “>”.

SMILES strings stand for the structures. Values after ≈ are worked out from the molar mass of the structure shown.

Take `O=C(c1c(F)ccc(NS(=O)(=O)N2CC[C@@H](F)C2)c1F)c1c[nH]c2ncc(-c3cnc(C4CC4)nc3)cc12` [Compound I Form H, (3R)—N-(3-(5-(2-cyclopropylpyrimidin-5-yl)-1H-pyrrolo[2,3-b]pyridine-3-carbonyl)-2,4-difluorophenyl)-3-fluoropyrrolidine-1-sulfonamide]: the “relative stability of solid forms (competitive slurry)” value in series [1] (listed as Form H) is “more stable than Form B”.
As for `O=C(c1c(F)ccc(NS(=O)(=O)N2CC[C@@H](F)C2)c1F)c1c[nH]c2ncc(-c3cnc(C4CC4)nc3)cc12` [Compound I, (3R)—N-(3-(5-(2-cyclopropylpyrimidin-5-yl)-1H-pyrrolo[2,3-b]pyridine-3-carbonyl)-2,4-difluorophenyl)-3-fluoropyrrolidine-1-sulfonamide], the IC50 on B-Raf V600E kinase is < 100 nM.
For `O=C(c1c(F)ccc(NS(=O)(=O)N2CC[C@@H](F)C2)c1F)c1c[nH]c2ncc(-c3cnc(C4CC4)nc3)cc12` [Compound I Form B, (3R)—N-(3-(5-(2-cyclopropylpyrimidin-5-yl)-1H-pyrrolo[2,3-b]pyridine-3-carbonyl)-2,4-difluorophenyl)-3-fluoropyrrolidine-1-sulfonamide], the solubility in series [2] (aqueous with cosolvent or surfactant or cyclodextrin, EtOH/Water (75/25 vol/vol)) was ~5000 µg/mL (≈ 9.22 mM); in series [2] (organic solvent or mixture, ACN) it was ~5000 µg/mL (≈ 9.22 mM); in series [2] (organic solvent or mixture, Acetone), ~36000 µg/mL (≈ 66.4 mM); in series [2] (organic solvent or mixture, DCM) it was < 1000 µg/mL; in series [2] (organic solvent or mixture, DMF), > 97000 µg/mL; in series [2] (organic solvent or mixture, DMSO), > 84000 µg/mL. Moreover, the solubility is > 103000 µg/mL in series [2] (organic solvent or mixture, Dioxane); ~5000 µg/mL (≈ 9.22 mM) in series [2] (organic solvent or mixture, EtOAc); ~1000 µg/mL (≈ 1.84 mM) in series [2] (organic solvent or mixture, EtOH); < 1000 µg/mL in series [2] (organic solvent or mixture, Heptane); < 1000 µg/mL in series [2] (organic solvent or mixture, IPA); < 2000 µg/mL in series [2] (organic solvent or mixture, MTBE). In addition, the solubility in series [2] (organic solvent or mixture, MeOH) was ~4000 µg/mL (≈ 7.37 mM); in series [2] (organic solvent or mixture, THF), > 102000 µg/mL; in series [2] (organic solvent or mixture, t-BuOH) it was < 2000 µg/mL; in series [2] (Water), < 1000 µg/mL. Further, the “relative stability of solid forms (competitive slurry)” value in series [1] (listed as Form B) is “less stable than Form H”.
